Reference: the supplement of paper PMC11061612

How the values were obtained:
Test in all cases: combination Emax (second highest fraction inhibited in the dose matrix, 72 h); higher = more inhibition; extreme values may be limits of the assay
[1] = test system: Hey (Ovarian Carcinoma)
In short: (§1)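 Bliss excess equals the observed combination effect minus the expected value EA + EB − EA·EB, where EA and EB are the effects of each agent alone. Combination Emax is the second-highest inhibition within the matrix. Inhibition was scaled from CellTiter-Glo 2.0 luminescence, with 0 set by vehicle wells and 1 by blank wells, after 72 hours of two-drug dosing of cells plated in 1536-well plates.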

[2] = test system: NCI-H1993 (Lung Adenocarcinoma)
In short: as §1

[3] = test system: A4-Fuk (B-Lymphoblastic Leukemia)
In short: as §1

[4] = test system: HAL-01 (B-Lymphoblastic Leukemia)
In short: as §1

| Compound | combination Emax [1] | combination Emax [2] | combination Emax [3] | combination Emax [4] |
| --- | --- | --- | --- | --- |
| CC1(C)CCC(CN2CCN(c3ccc(C(=O)NS(=O)(=O)c4ccc(NCC5CCOCC5)c([N+](=O)[O-])c4)c(Oc4cnc5[nH]ccc5c4)c3)CC2)=C(c2ccc(Cl)cc2)C1 [Venetoclax] + CCN(CCO)CCCOc1ccc2c(Nc3cc(CC(=O)Nc4cccc(F)c4)[nH]n3)ncnc2c1 [AZD2811] (first compound max 1 µM, 7x7, partner max 1 µM) | 0.266 | 0.232 | 0.748 | 0.959 |
| CC(=O)c1c(C)c2cnc(Nc3ccc(N4CCNCC4)cn3)nc2n(C2CCCC2)c1=O [Palbociclib] + Cn1cnc2c(F)c(Nc3ccc(Br)cc3Cl)c(C(=O)NOCCO)cc21 [Selumetinib] (first compound max 10 µM, 7x7, partner max 10 µM) | 0.623 | 0.69 | 0.732 | 0.928 |
| Cn1cnc2c(F)c(Nc3ccc(Br)cc3Cl)c(C(=O)NOCCO)cc21 [Selumetinib] + C[C@@H]1COCCN1C2=NC(=NC(=C2)C3(CC3)[S@](=N)(=O)C)C4=C5C=CNC5=NC=C4 [AZD6738] (first compound max 10 µM, 7x7, partner max 10 µM) | 0.748 | 0.795 | 0.836 | 0.976 |
| Cc1c2c(nn1C)CSCc1cc(n(C)n1)CSc1cc(c3ccccc3c1)OCCCc1c(C(=O)O)n(C)c3c-2c(Cl)ccc13 [AZD5991] + Cc1cc2ncnn2cc1Nc1ncc2c(n1)n(C1CCOCC1)c(=O)n2C [AZD7648] (first compound max 1 µM, 7x7, partner max 10 µM) | 0.316 | 0.492 | 1 | 0.704 |
| Cn1cnc2c(F)c(Nc3ccc(Br)cc3Cl)c(C(=O)NOCCO)cc21 [Selumetinib] + C=CCn1c(=O)c2cnc(Nc3ccc(N4CCN(C)CC4)cc3)nc2n1-c1cccc(C(C)(C)O)n1 [AZD1775] (first compound max 10 µM, partner max 1 µM) | 0.719 | 0.83 | 0.948 | 0.876 |
| Cc1c2c(nn1C)CSCc1cc(n(C)n1)CSc1cc(c3ccccc3c1)OCCCc1c(C(=O)O)n(C)c3c-2c(Cl)ccc13 [AZD5991] + C[C@@H](Nc1cc(F)cc(F)c1)c1cc(C(=O)N(C)C)cc2c(=O)cc(N3CCOCC3)oc12 [AZD8186] (first compound max 1 µM, 7x7, partner max 3 µM) | 0.258 | 0.455 | 1 | 0.734 |
| Cc1c2c(nn1C)CSCc1cc(n(C)n1)CSc1cc(c3ccccc3c1)OCCCc1c(C(=O)O)n(C)c3c-2c(Cl)ccc13 [AZD5991] + C1CN(CCC1(C(=O)N[C@@H](CCO)C2=CC=C(C=C2)Cl)N)C3=NC=NC4=C3C=CN4 [Capivasertib] (first compound max 1 µM, 7x7, partner max 3 µM) | 0.156 | 0.461 | 1 | 0.527 |
| NC1(C(=O)N[C@@H](CCO)c2ccc(Cl)cc2)CCN(c2ncnc3[nH]ccc23)CC1 [Capivasertib] + Cn1cnc2c(F)c(Nc3ccc(Br)cc3Cl)c(C(=O)NOCCO)cc21 [Selumetinib] (first compound max 10 µM, 7x7, partner max 10 µM) | 0.773 | 0.839 | 0.905 | 0.554 |
| CCN(CCO)CCCOc1ccc2c(Nc3cc(CC(=O)Nc4cccc(F)c4)[nH]n3)ncnc2c1 [AZD2811] + O=C(c1cc(Cc2n[nH]c(=O)c3ccccc23)ccc1F)N1CCN(C(=O)C2CC2)CC1 [Olaparib] (first compound max 1 µM, 7x7, partner max 10 µM) | 0.319 | 0.191 | 0.437 | 0.37 |
| CC1(C)CCC(CN2CCN(c3ccc(C(=O)NS(=O)(=O)c4ccc(NCC5CCOCC5)c([N+](=O)[O-])c4)c(Oc4cnc5[nH]ccc5c4)c3)CC2)=C(c2ccc(Cl)cc2)C1 [Venetoclax] + C=CCn1c(=O)c2cnc(Nc3ccc(N4CCN(C)CC4)cc3)nc2n1-c1cccc(C(C)(C)O)n1 [AZD1775] (first compound max 1 µM, partner max 1 µM) | 0.667 | 0.629 | 0.883 | 1 |
| NC1(C(=O)N[C@@H](CCO)c2ccc(Cl)cc2)CCN(c2ncnc3[nH]ccc23)CC1 [Capivasertib] + CCN(CCO)CCCOc1ccc2c(Nc3cc(CC(=O)Nc4cccc(F)c4)[nH]n3)ncnc2c1 [AZD2811] (first compound max 10 µM, 7x7, partner max 1 µM) | 0.471 | 0.605 | 0.878 | 0.464 |
| CCc1c2c(nc3ccc(O)cc13)-c1cc3c(c(=O)n1C2)COC(=O)[C@]3(O)CC [SN-38] + CN(C)CCCOc1ccc(-c2ccc3ncc4c(c3c2)n(C2CCOCC2)c(=O)n4C)cn1 [AZD0156] (first compound max 0.3 µM, 7x7, partner max 1 µM) | 0.732 | 0.696 | 0.923 | 1 |
| Cc1c2c(nn1C)CSCc1cc(n(C)n1)CSc1cc(c3ccccc3c1)OCCCc1c(C(=O)O)n(C)c3c-2c(Cl)ccc13 [AZD5991] + CCN(CCO)CCCOc1ccc2c(Nc3cc(CC(=O)Nc4cccc(F)c4)[nH]n3)ncnc2c1 [AZD2811] (first compound max 1 µM, 7x7, partner max 1 µM) | 0.331 | 0.232 | 1 | 0.468 |
| Cc1c2c(nn1C)CSCc1cc(n(C)n1)CSc1cc(c3ccccc3c1)OCCCc1c(C(=O)O)n(C)c3c-2c(Cl)ccc13 [AZD5991] + CC1(C)CCC(CN2CCN(c3ccc(C(=O)NS(=O)(=O)c4ccc(NCC5CCOCC5)c([N+](=O)[O-])c4)c(Oc4cnc5[nH]ccc5c4)c3)CC2)=C(c2ccc(Cl)cc2)C1 [Venetoclax] (first compound max 1 µM, 7x7, partner max 1 µM) | 0.133 | 0.325 | 1 | 0.984 |
| NC1(C(=O)N[C@@H](CCO)c2ccc(Cl)cc2)CCN(c2ncnc3[nH]ccc23)CC1 [Capivasertib] + CC(C)n1c(=O)n(C)c2cnc3cc(F)c(-c4ccc(OCCCN5CCCCC5)nc4)cc3c21 [AZD1390] (first compound max 10 µM, 7x7, partner max 0.3 µM) | 0.225 | 0.595 | 0.786 | 0.492 |
| Cn1cnc2c(F)c(Nc3ccc(Br)cc3Cl)c(C(=O)NOCCO)cc21 [Selumetinib] + CC(C)n1c(=O)n(C)c2cnc3cc(F)c(-c4ccc(OCCCN5CCCCC5)nc4)cc3c21 [AZD1390] (first compound max 10 µM, 7x7, partner max 0.3 µM) | 0.549 | 0.627 | 0.404 | 0.48 |
| COc1cccc(OCCCN)c1-c1cc(Nc2cnc(C#N)cn2)n[nH]1 [Prexasertib] + CN(C)CCCOc1ccc(-c2ccc3ncc4c(c3c2)n(C2CCOCC2)c(=O)n4C)cn1 [AZD0156] (first compound max 1 µM, 7x7, partner max 1 µM) | 0.82 | 0.826 | 0.885 | 1 |
| CCN(CCO)CCCOc1ccc2c(Nc3cc(CC(=O)Nc4cccc(F)c4)[nH]n3)ncnc2c1 [AZD2811] + C[C@@H]1COCCN1C2=NC(=NC(=C2)C3(CC3)[S@](=N)(=O)C)C4=C5C=CNC5=NC=C4 [AZD6738] (first compound max 1 µM, 7x7, partner max 10 µM) | 0.711 | 0.513 | 0.747 | 0.99 |
| CN(C)CCCOc1ccc(-c2ccc3ncc4c(c3c2)n(C2CCOCC2)c(=O)n4C)cn1 [AZD0156] + CCN(CCO)CCCOc1ccc2c(Nc3cc(CC(=O)Nc4cccc(F)c4)[nH]n3)ncnc2c1 [AZD2811] (first compound max 1 µM, 7x7, partner max 1 µM) | 0.229 | 0.288 | 0.551 | 0.435 |
| CC(=O)c1c(C)c2cnc(Nc3ccc(N4CCNCC4)cn3)nc2n(C2CCCC2)c1=O [Palbociclib] + Cc1c2c(nn1C)CSCc1cc(n(C)n1)CSc1cc(c3ccccc3c1)OCCCc1c(C(=O)O)n(C)c3c-2c(Cl)ccc13 [AZD5991] (first compound max 10 µM, 7x7, partner max 1 µM) | 0.431 | 0.403 | 1 | 0.935 |
